Measurements: the supplement of paper PMC4862054

Tests used:
Experiment in all cases: normalised response (% of control), CellTiter-Glo; higher = more viable cells (100 = DMSO, 0 = benzethonium chloride kill control)
Conditions in all cases: incubation time: 72 h
[1] = system: MDA-MB-436
How it was run: (§1)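 The table gives the normalised signal for a single concentration in each entry. Breast cancer cell lines were seeded (20 µl suspension) into 384-well plates holding compound at 5 concentrations in 10-fold steps over a compound-specific 10,000-fold range and incubated 72 h, then read for CellTox Green fluorescence (485/520 nm) and CellTiter-Glo luminescence. Normalisation on each plate used 0.1 % DMSO (100) and a positive kill control (0).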

[2] = system: BT-549
How it was run: as §1

[3] = system: HCC1937
How it was run: as §1

[4] = system: MFM-223
How it was run: as §1

[5] = system: Hs578T
How it was run: as §1

[6] = system: CAL-85-1
How it was run: as §1

[7] = system: HCC1599
How it was run: as §1

[8] = system: MDA-MB-468
How it was run: as §1

[9] = system: CAL-51
How it was run: as §1

[10] = system: HCC1143
How it was run: as §1

[11] = system: BT-474
How it was run: as §1

[12] = system: MCF-10A
How it was run: as §1

[13] = system: MDA-MB-453
How it was run: as §1

[14] = system: DU-4475
How it was run: as §1

[15] = system: HDQ-P1
How it was run: as §1

[16] = system: MDA-MB-231
How it was run: as §1

[17] = system: CAL-148
How it was run: as §1

[18] = system: CAL-120
How it was run: as §1

Row | Compound | normalised response [1] [%] | normalised response [2] [%] | normalised response [3] [%] | normalised response [4] [%] | normalised response [5] [%] | normalised response [6] [%] | normalised response [7] [%] | normalised response [8] [%] | normalised response [9] [%] | normalised response [10] [%] | normalised response [11] [%] | normalised response [12] [%] | normalised response [13] [%] | normalised response [14] [%] | normalised response [15] [%] | normalised response [16] [%] | normalised response [17] [%] | normalised response [18] [%]
1 | CC1(COc2ccc3c(c2)ncn3-c2ccc3cccc(N4CCC(N)CC4)c3n2)COC1 [Crenolanib] (10 nM) | 94.8 | 95.6 | 104 | 108 | 98.7 | 99.2 | 96.2 | 102 | 90.6 | 105 | 105 | 106 | 94.6 | 103 | 103 | 106 | 110 | 97.8
2 | CC(C)(C)c1nc(-c2cccc(NS(=O)(=O)c3c(F)cccc3F)c2F)c(-c2ccnc(N)n2)s1 [Dabrafenib] (2.5 nM) | 101 | 99.1 | 98.4 | 101 | 103 | 99 | 99.8 | 105 | 109 | 105 | 101 | 112 | 111 | 104 | 105 | 102 | 112 | 98.5
3 | Nc1ccn([C@@H]2O[C@H](CO)[C@@H](O)C2(F)F)c(=O)n1 [Gemcitabine] (1 nM) | 95.5 | 95 | 95.7 | 101 | 98.1 | 101 | 109 | 95.7 | 66 | 100 | 100 | 109 | 101 | 94 | 99.3 | 97.4 | 95.6 | 95.9
4 | O=C(O)CNC(=O)c1c(O)c2ccccc2n(Cc2ccccc2)c1=O [IOX-2] (50 nM) | 96.9 | 93.9 | 93.6 | 104 | 102 | 97.1 | 94.1 | 92.9 | 88 | 94.5 | 96.9 | 103 | 86.3 | 95.1 | 95.7 | 99.5 | 98.7 | 98.1
5 | CC(=O)[C@]1(O)Cc2c(O)c3c(c(O)c2[C@@H](O[C@H]2C[C@H](N)[C@H](O)[C@H](C)O2)C1)C(=O)c1ccccc1C3=O [Idarubicin] (1 nM) | 113 | 90.5 | 99.9 | 109 | 99.5 | 103 | 91.1 | 97.7 | 91.5 | 107 | 111 | 105 | 101 | 101 | 99.7 | 109 | 116 | 104
6 | C/C(=C\c1csc(C)n1)[C@@H]1C[C@@H]2O[C@]2(C)CCC[C@H](C)[C@H](O)[C@@H](C)C(=O)C(C)(C)[C@@H](O)CC(=O)N1 [Ixabepilone] (1 nM) | 99.3 | 95.5 | 97.6 | 106 | 105 | 99.8 | 85.5 | 104 | 129 | 98.1 | 106 | 103 | 107 | 102 | 98.5 | 101 | 102 | 100
7 | CN(C)C(=N)NC(=N)N [Metformin] (100 nM) | 95.4 | 99 | 99.6 | 87.2 | 94 | 95.7 | 97.6 | 88 | 117 | 101 | 91.7 | 77.5 | 76.8 | 93 | 99.4 | 102 | 93.7 | 108
8 | CC[C@H](CO)Nc1nc(NCc2ccccc2)c2ncn(C(C)C)c2n1 [Seliciclib] (10 nM) | 110 | 99.9 | 104 | 101 | 105 | 108 | 103 | 98.9 | 113 | 98.7 | 102 | 107 | 104 | 103 | 94.5 | 104 | 110 | 91.9
9 | O=[N+]([O-])c1ccc2c(c1)S(=O)(=O)C=C2 [Stattic] (50 nM) | 96.4 | 94.6 | 102 | 102 | 103 | 96.5 | 110 | 96.9 | 107 | 106 | 98.6 | 102 | 97.1 | 99.9 | 100 | 101 | 103 | 98.9
10 | O=C(CCCCCCC(=O)Nc1ccccc1)NO [Vorinostat] (10 nM) | 105 | 106 | 101 | 101 | 98.1 | 105 | 102 | 106 | 117 | 98.4 | 97.6 | 102 | 90.3 | 105 | 94.6 | 98.2 | 98.6 | 87.9
